Series [1] concerns the target T1, Qpct (Homo sapiens, UniProt Q16769). Kind of series: pH-dependence of Qpct catalyzed conversion of Glu-βNA. The format is biochemical. The source says:
(§1) However, in the pH-range of about 5.2-6.5, between their respective pKa-values, the two functional groups are present both in non-ionized forms, in concentrations of about 1-10% (—NH2) or 10-1% (—COOH) of total N-terminal Glu-containing peptide. As a result, over a mildly acidic pH-range species of N-terminal Glu-peptides are present which carry both groups uncharged, and, therefore, it is possible that Qpct could stabilize the intermediate of intramolecular cyclization into the pGlu-peptide, i.e. if the γ-carboxylic group is protonated, the carbonyl carbon is electrophilic enough to allow nucleophilic attack by the unprotonated α-amino group. At this pH the hydroxyl ion functions as a leaving group. These assumptions are corroborated by the pH-dependence data obtained for the Qpct catalyzed conversion of Glu-βNA. In contrast to glutamine conversion of Gln-βNA by Qpct, the pH-optimum of catalysis shifts to the acidic range around pH 6.0, i.e. the pH-range, in which substrate molecule species are simultaneously abundant carrying a protonated 7-carboxyl and unprotonated α-amino group.

A short description of series [2]: pKa of α-amino group determined by titration. Format: physicochemical.
Description: as §1

Series [3] has as its target T1, Qpct. Kind of series: Inhibition of Qpct by chelators (metal dependence). Format: biochemical. Conditions: human Qpct and other animal Qpcts.
The subject of series [4] is mammalian Qpct. The conditions noted are these: cited from earlier work.
The conditions of series [5]: cited from earlier work.

T1 sequence (Q16769 29-361): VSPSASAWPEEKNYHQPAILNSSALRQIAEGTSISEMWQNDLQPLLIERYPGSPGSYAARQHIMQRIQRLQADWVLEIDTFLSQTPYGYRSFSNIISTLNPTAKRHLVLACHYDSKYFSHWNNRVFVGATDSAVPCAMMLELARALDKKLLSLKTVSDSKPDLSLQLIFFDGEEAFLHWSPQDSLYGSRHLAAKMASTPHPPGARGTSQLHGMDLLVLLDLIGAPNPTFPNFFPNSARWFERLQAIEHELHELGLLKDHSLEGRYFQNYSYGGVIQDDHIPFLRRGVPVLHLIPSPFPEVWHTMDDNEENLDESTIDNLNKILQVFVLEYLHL

As for `N[C@@H](CCC(=O)O)C(=O)Nc1ccc2ccccc2c1` [Glu-βNA], the “kinetically determined pKa-value” in series [1] was 7.55+/−0.02. In series [2], the “pKa of the α-amino group, determined by titration” value amounted to 7.57±0.05.

`c1cnc2c(c1)ccc1cccnc12` [1,10-phenanthroline]: the “inhibition characteristics of Qpct” value in series [3] is reported as “inhibition”. For the same molecule, in series [4], the “Inhibition of a mammalian Qpct” value was “Inhibition of a mammalian Qpct was only detected”. In the case of reduced 6-methylpterin, the “Inhibition of a mammalian Qpct” value in series [4] is on record as “Inhibition of a mammalian Qpct was only detected”. As for `N[C@@H](CCC(=O)O)C(=O)O` [Glutamate], in series [5], the “pKa-value for the α-amino moiety” value is listed as around 7.5 and the “pKa-value for the γ-carboxylic moiety” value was “about 4.2”. Regarding `Oc1cccc2cccnc12` [8-hydroxy-quinoline], the “inhibition characteristics of Qpct” value in series [3] was “inhibition”. As for `O=C(O)CN(CCN(CC(=O)O)CC(=O)O)CC(=O)O` [EDTA], the “Inhibition of a mammalian Qpct” value in series [4] is given as “did not inhibit”.

For the molecule `O=C(O)c1cccc(C(=O)O)n1` [dipicolinic acid], the “inhibition characteristics of Qpct” value in series [3] is recorded as “inhibition”.

(Values after patent US9462793B2, “Mouse carrying a knock-out mutation of the Qpct-gene” (PROBIODRUG AG, priority 2008, dated 2016).)
